Measurements from patent US12336981B2, “Compounds and compositions for the inhibition of NAMPT” (Valo Health, Inc., priority 2010, dated 2025).
Where two headings read alike, the source gives them in different places.

Tests used:
NAMPT = molecular target: T1, NAMPT (Homo sapiens, UniProt P43490); assay: Biochemical inhibition assay: NAMPT enzymatic reaction, NMN quantified by mass spectrometry; settings: read-out: Biochem IC50
T1 construct: His tag; host or cells: E. coli
How it was run: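 Inhibition of E. coli-expressed His-tagged human NAMPT, measured as NMN formation by mass spectrometry after a 30 min room-temperature reaction containing 1 μM NAM, 100 μM PRPP and 2.5 mM ATP.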

A2780 cells = assay: In-vitro cell proliferation assay (SRB), A2780 cells; type: cell-based; settings: A2780 cells, 72 hours, read-out: A2780 IC50
How it was run: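 Read-out is SRB absorbance at 570 nm on TCA-fixed cells after 72 hours of compound treatment at 37° C. in 5% CO2. Background from a media-only plate is subtracted, and % inhibition is interpolated between two tested concentrations.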

[1] = Homo sapiens, A2780, 72 h, SRB assay

T1 sequence (P43490 whole entry): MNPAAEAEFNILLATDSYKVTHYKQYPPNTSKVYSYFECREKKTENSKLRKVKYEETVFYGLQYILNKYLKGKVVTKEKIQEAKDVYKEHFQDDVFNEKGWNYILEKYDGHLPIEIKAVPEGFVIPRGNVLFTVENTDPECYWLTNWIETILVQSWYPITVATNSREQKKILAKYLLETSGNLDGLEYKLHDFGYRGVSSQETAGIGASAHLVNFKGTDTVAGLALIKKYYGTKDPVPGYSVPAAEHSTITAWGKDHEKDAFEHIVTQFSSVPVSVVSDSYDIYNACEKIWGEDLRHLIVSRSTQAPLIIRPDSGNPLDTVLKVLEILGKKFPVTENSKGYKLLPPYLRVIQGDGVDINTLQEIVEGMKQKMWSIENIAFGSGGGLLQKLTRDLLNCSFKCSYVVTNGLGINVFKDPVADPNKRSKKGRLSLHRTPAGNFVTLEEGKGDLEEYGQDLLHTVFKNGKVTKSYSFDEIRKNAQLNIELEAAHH

| Compound | IC50 (NAMPT; NAMPT enzymatic reaction) [nM] | IC50 (A2780 cells; Homo sapiens, A2780, 72 h, SRB) [nM] | IC50 (NAMPT; NAMPT enzymatic assay) [nM] | further results |
| --- | --- | --- | --- | --- |
| Cc1c(Cl)cccc1S(=O)(=O)c1ccc(CNC(=O)c2cnc3nccn3c2)cc1 | 4.3 | 26.5 | – | – |
| O=C(NCc1ccc(S(=O)(=O)c2cc(CO)ccc2Cl)cc1)c1cc2cnccc2[nH]1 | – | 26.2 | 8.3 | – |
| COc1ccc(S(=O)(=O)c2ccc(CNC(=O)c3cnc4nccn4c3)cc2)c(C(F)(F)F)c1 | – | 65.7 | 7 | – |
| O=C(NCc1ccc(S(=O)(=O)c2cccc(N3CCCC3)c2)cc1)c1ccc2nccn2c1 | – | 1.6 | 13.6 | – |
| Cc1cc(C(F)(F)F)ccc1S(=O)(=O)c1ccc(CNC(=O)c2cc3cnccc3[nH]2)cc1 | – | 25.3 | 30.5 | – |
| O=C(NCc1ccc(S(=O)(=O)c2cc(C(F)(F)F)ccc2OCc2ccccc2)cc1)c1cnc2nccn2c1 | – | 100 to 1000 | 33.2 | – |
| O=C(NCc1ccc(S(=O)(=O)c2ccc(-n3cccn3)c(F)c2)cc1)c1cnc2[nH]ncc2c1 | – | 3.3 | 13.1 | – |
| Cc1ccc(S(=O)(=O)c2ccc(CNC(=O)c3cc4cnccc4[nH]3)cc2)c(Cl)c1 | 8 | 2.7 | – | – |
| CCCOc1ccc(S(=O)(=O)c2ccc(CNC(=O)c3cc4ccncc4s3)cc2)cc1 | 4.3 | 8.1 | – | – |
| O=C(NCc1ccc(S(=O)(=O)c2ccc3ncccc3c2)cc1)c1cnc2nccn2c1 [N-{[4-(quinoline-6-sulfonyl)phenyl]methyl}imidazo[1,2-a]pyrimidine-6-carboxamide] | – | 5.6 | 3.3 | – |
| CCCCOc1ccc(Cl)cc1S(=O)(=O)c1ccc(CNC(=O)c2ccc3nccn3c2)cc1 | 11 | 8 | – | – |
| COc1cc(S(=O)(=O)c2ccc(CNC(=O)c3cnc4nccn4c3)cc2)ccc1F | 4.9 | 10.8 | – | – |
| Cc1cc(F)cc(S(=O)(=O)c2ccc(CNC(=O)c3cnc4nccn4c3)cc2)c1 | 1.5 | 5.4 | – | – |
| O=C(NCc1ccc(S(=O)(=O)c2cccc(-n3cccn3)c2)cc1)c1cc2ccncc2o1 | – | 9.1 | 7.5 | – |
| CC(C)c1ccc(S(=O)(=O)c2ccc(CNC(=O)c3cnc4nccn4c3)cc2)cc1 | – | 8.1 | 1.7 | – |
| COc1cc(S(=O)(=O)c2ccc(CNC(=O)c3cc4ccncc4s3)cc2)ccc1F [N-({4-[(4-fluoro-3-methoxybenzene)sulfonyl]phenyl}methyl)thieno[2,3-c]pyridine-2-carboxamide] | 9 | 3.1 | – | – |
| Cc1cncc(S(=O)(=O)c2ccc(CNC(=O)c3cnc4nccn4c3)cc2)c1 [N-{[4-(5-methylpyridine-3-sulfonyl)phenyl]methyl}imidazo[1,2-a]pyrimidine-6-carboxamide] | – | 12.4 | 2.2 | – |
| CCNC(=O)c1ccc(S(=O)(=O)c2ccc(CNC(=O)c3cc4ccncc4s3)cc2)cc1 | – | 3.3 | 1.5 | – |
| Cc1ccc(S(=O)(=O)c2ccc(CNC(=O)c3cnc4nccn4c3)cc2)c(Cl)c1 | 1.5 | 0.7 | – | – |
| O=C(NCc1ccc(S(=O)(=O)c2cccc(-c3ncccn3)c2)cc1)c1ccc2nccn2c1 | – | 3.8 | 21.9 | – |
| COc1ccc(Cl)c(S(=O)(=O)c2ccc(CNC(=O)c3cc4ccncc4o3)cc2)c1 | 2.6 | 20.6 | – | – |
| Cc1cc(C)cc(S(=O)(=O)c2ccc(CNC(=O)c3cc4ccncc4o3)cc2)c1 | 16.7 | 2.8 | – | – |
| O=C(NCc1ccc(S(=O)(=O)c2cccc3c2OCC3)cc1)c1cnc2nccn2c1 [N-{[4-(2,3-dihydro-1-benzofuran-7-sulfonyl)phenyl]methyl}imidazo[1,2-a]pyrimidine-6-carboxamide] | – | 25.8 | 2.1 | – |
| Cn1cc(S(=O)(=O)c2ccc(CNC(=O)c3cc4ccncc4o3)cc2)cn1 [N-{[4-(1-methyl-1H-pyrazole-4-sulfonyl)phenyl]methyl}furo[2,3-c]pyridine-2-carboxamide] | – | 65.4 | 16.8 | – |
| Cc1ccc(C)c(S(=O)(=O)c2ccc(CNC(=O)c3cc4ccncc4s3)cc2)c1 [N-({4-[(2,5-dimethylbenzene)sulfonyl]phenyl}methyl)thieno[2,3-c]pyridine-2-carboxamide] | 11 | – | – | IC50 (A2780 cells; [1]): 8.6 nM |
| CCOc1ccc(S(=O)(=O)c2ccc(CNC(=O)c3cc4ccncc4o3)cc2)cc1 [N-({4-[(4-ethoxybenzene)sulfonyl]phenyl}methyl)furo[2,3-c]pyridine-2-carboxamide] | 2.5 | 7.1 | – | – |

| Compound | IC50 (NAMPT; NAMPT enzymatic reaction) [nM] | IC50 (A2780 cells; Homo sapiens, A2780, 72 h, SRB) [nM] | IC50 (NAMPT; NAMPT enzymatic assay) [nM] | further results |
| --- | --- | --- | --- | --- |
| CCCCc1ccc(S(=O)(=O)c2ccc(CNC(=O)c3cnc4nccn4c3)cc2)cc1 | 5.3 | 10.7 | – | – |
| COc1cc(S(=O)(=O)c2ccc(CNC(=O)c3cc4ccncc4o3)cc2)ccc1C | 4.6 | 3.1 | – | – |
| O=C(NCc1ccc(S(=O)(=O)c2cc(Cl)cc(Cl)c2)cc1)c1ccc2nccn2c1 [N-({4-[(3,5-dichlorobenzene)sulfonyl]phenyl}methyl)imidazo[1,2-a]pyridine-6-carboxamide] | 5.49 | 1.28 | – | – |
| CCc1ccccc1S(=O)(=O)c1ccc(CNC(=O)c2cc3cnccc3[nH]2)cc1 [N-({4-[(2-ethylbenzene)sulfonyl]phenyl}methyl)-1H-pyrrolo[3,2-c]pyridine-2-carboxamide] | 5 | – | – | IC50 (A2780 cells; [1]): 3 nM |
| COc1ccc(S(=O)(=O)c2ccc(CNC(=O)c3cc4ccncc4s3)cc2)cc1OC [N-({4-[(3,4-dimethoxybenzene)sulfonyl]phenyl}methyl)thieno[2,3-c]pyridine-2-carboxamide] | 3 | – | – | IC50 (A2780 cells; [1]): 0.9 nM |
| CCc1ccc(S(=O)(=O)c2ccc(CNC(=O)c3cc4ccncc4s3)cc2)cc1 [N-({4-[(4-ethylbenzene)sulfonyl]phenyl}methyl)thieno[2,3-c]pyridine-2-carboxamide] | 6 | – | – | IC50 (A2780 cells; [1]): 7.8 nM |
| O=C(NCc1ccc(S(=O)(=O)c2ccc(C(F)(F)F)cc2F)cc1)c1cc2ccncc2s1 | – | 42.3 | 20.2 | – |
| O=C(NCc1ccc(S(=O)(=O)c2cccc3c2OCO3)cc1)c1cnc2nccn2c1 [N-{[4-(2H-1,3-benzodioxole-4-sulfonyl)phenyl]methyl}imidazo[1,2-a]pyrimidine-6-carboxamide] | – | 93.3 | 2.9 | – |
| O=C(NCc1ccc(S(=O)(=O)c2cc(F)ccc2Cl)cc1)c1ccc2nccn2c1 | 21 | 6.3 | – | – |
| COc1c(F)cccc1S(=O)(=O)c1ccc(CNC(=O)c2ccc3nccn3c2)cc1 [N-({4-[(3-fluoro-2-methoxybenzene)sulfonyl]phenyl}methyl)imidazo[1,2-a]pyridine-6-carboxamide] | 76.9 | 65 | – | – |
| CC(C)COc1ccc(S(=O)(=O)c2ccc(CNC(=O)c3cnc4nccn4c3)cc2)cc1 | – | 5.2 | 5.5 | – |
| N#Cc1ccc(S(=O)(=O)c2ccc(CNC(=O)c3cc4ccncc4o3)cc2)cc1 [N-({4-[(4-cyanobenzene)sulfonyl]phenyl}methyl)furo[2,3-c]pyridine-2-carboxamide] | 5.3 | 30.9 | – | – |
| CC(=O)c1cccc(S(=O)(=O)c2ccc(CNC(=O)c3ccc4nccn4c3)cc2)c1 [N-({4-[(3-acetylbenzene)sulfonyl]phenyl}methyl)imidazo[1,2-a]pyridine-6-carboxamide] | 12.5 | 6.37 | – | – |
| CCN(C)c1ncc(S(=O)(=O)c2ccc(CNC(=O)c3ccc4nccn4c3)cc2)s1 [N-[(4-{2-[ethyl(methyl)amino]-1,3-thiazole-5-sulfonyl}phenyl)methyl]imidazo[1,2-a]pyridine-6-carboxamide] | – | 0.4 | 3.3 | – |
| COc1cc(F)c(F)cc1S(=O)(=O)c1ccc(CNC(=O)c2cc3ccncc3s2)cc1 [N-({4-[(4,5-difluoro-2-methoxybenzene)sulfonyl]phenyl}methyl)thieno[2,3-c]pyridine-2-carboxamide] | 5 | – | – | IC50 (A2780 cells; [1]): 2.9 nM |
| CCCOc1ccc(S(=O)(=O)c2ccc(CNC(=O)c3ccc4nccn4c3)cc2)cc1F | 22.1 | 4.4 | – | – |
| Cc1cc(C)n(-c2cccc(S(=O)(=O)c3ccc(CNC(=O)c4cc5ccncc5o4)cc3)c2)n1 | – | 3.5 | 7.1 | – |
| O=C(NCc1ccc(S(=O)(=O)c2ccc(-n3cccn3)cc2)cc1)c1cnc2[nH]ncc2c1 | – | 7.5 | 12.3 | – |
| COc1cc(F)c(F)cc1S(=O)(=O)c1ccc(CNC(=O)c2ccc3nccn3c2)cc1 [N-({4-[(4,5-difluoro-2-methoxybenzene)sulfonyl]phenyl}methyl)imidazo[1,2-a]pyridine-6-carboxamide] | 28.1 | 6.8 | – | – |
| CCN(CC)C(=O)c1cc(F)cc(S(=O)(=O)c2ccc(CNC(=O)c3cc4ccncc4o3)cc2)c1 | – | 3.8 | 10.3 | – |
| O=C(NCc1ccc(S(=O)(=O)c2ccc(OC(F)(F)F)c(F)c2)cc1)c1ccc2nccn2c1 | – | 6.3 | 8.4 | – |
| O=C(NCc1ccc(S(=O)(=O)c2cccc(F)c2Cl)cc1)c1cnc2[nH]ncc2c1 | 73.6 | 100 to 1000 | – | – |
| COCc1cccc(S(=O)(=O)c2ccc(CNC(=O)c3ccc4nccn4c3)cc2)c1 | – | 6.8 | 6.7 | – |
| O=C(NCc1ccc(S(=O)(=O)c2cc(Cl)cc(CO)c2)cc1)c1cc2ccncc2s1 | – | – | – | IC50 (NAMPT): 3.3 nM; IC50 (A2780 cells; SRB): 0.8 nM |
| COc1c(C)cc(S(=O)(=O)c2ccc(CNC(=O)c3cnc4[nH]ncc4c3)cc2)cc1C [N-({4-[(4-methoxy-3,5-dimethylbenzene)sulfonyl]phenyl}methyl)-1H-pyrazolo[3,4-b]pyridine-5-carboxamide] | 5 | 1.85 | – | – |
| O=C(NCc1ccc(S(=O)(=O)c2cccc3c2Oc2ccccc2S3)cc1)c1ccc2nccn2c1 [N-{[4-(phenoxathiine-4-sulfonyl)phenyl]methyl}imidazo[1,2-a]pyridine-6-carboxamide] | – | 2.18 | 2.15 | – |
